Assay: Body weight loss in the CO-04-0310 PDX study
Assay type: in vivo, Balb/c nude mice
Conditions: CO-04-0310 study; Compound 1 30 mg/kg/dose BID monotherapy; DietGel starting on treatment day 14
Experimental: Treatment started on the day after randomization. The treatment start day was denoted as treatment day 1. Mice were dosed by oral administration of vehicle control solution or monotherapy treatments of Compound 1 at 30 mg/kg/dose BID or sotorasib at 100 mg/kg QD. An additional group received combination treatment of Compound 1 at 30 mg/kg/dose BID or sotorasib at 100 mg/kg QD. BID was dosed at an 8-hour interval. In the combination group, sotorasib was dosed first and Compound 1 was dosed one hour later. In addition to regular food and water supply. DietGel (Ready Jelly R. 76A. Ready Biotechnology (ShenZhen) Co., Ltd.) was added in cages where at least two mice in a treatment group started showing >10% BWL at any measurement day. DietGel was supplied through the remaining study period after the addition of DietGel. Per this practice, mice in the Compound 1 at 30 mg/kg/dose BID monotherapy treatment group were supplied with DictGel food starting on treatment day 14. The study was terminated on treatment day 28 as defined in the study protocol.

Q: For `Cc1cnc(NC2CCOCC2)nc1-n1cnc(C(=O)N[C@H](CN)c2cc(F)cc(Cl)c2)c1` [Compound 1, (S)—N-(2-amino-1-(3-chloro-5-fluorophenyl)ethyl)-1-(5-methyl-2-((tetrahydro-2H-pyran-4-yl)amino)pyrimidin-4-yl)-1H-imidazole-4-carboxamide], which “BWL (at least two mice in treatment group; DietGel supplied)” value is on record?
A: Its value is greater than 10%.

— patent US20240285625A1, “ERK1/2 AND KRAS G12C INHIBITORS COMBINATION THERAPY” (Erasca, Inc., priority 2021, published 2024)
